Assay results taken from patent US20040072750A1, “Compounds and methods for the modulation of CD154” (priority 2001, published 2004).

Experiments:
Format in all cases: cell-based, human
washed platelets [1] = test: sCD40L release from TRAP activated, not aggregated washed platelets (ELISA); details: for release of sCD40L from TRAP activated, but not aggregated, platelets: 50 μM, FIG. 3; for release of sCD154 from TRAP-stimulated platelets: 5-50 μM inhibitor, 5 μM TRAP, no rocking
Protocol: (§1) Washed platelets were prepared from blood drawn into ⅙^th volume of ACD containing (85 mM sodium citrate, 111 mM dextrose and 71 mM citric acid) with 0.05 μg/ml PGI2. Collected blood was centrifuged at 160×g for 20 minutes at room temperature (Beckman GP) and the PRP layer was collected. PRP was then centrifuged at 1100×g for 10 minutes to sediment platelets. Platelets were washed twice by repeat suspending and pelleting in CGS (13 mM trisodium citrate, 120 mM NaCl, 30 mM Dextrose, pH 7.0) containing 0.05 μg/ml PGI2 for the first wash. The final suspension of platelets (5×10^8/ml) was in Tyrode's Hepes.
The release of sCD40L from the activated platelets was determined as follows: 500 μL of washed platelets were gently mixed 5 μM of TRAP and incubated at 37° C. without rocking for 30 min. Under this condition, platelets were activated but not aggregated. 5-50 μM of metalloproteinase inhibitors GM6001 (Galardin, Calbiochem) or TAPI-1 (Peptides International) were added to the washed platelets before the addition of TRAP. Platelets were removed from suspension by centrifugation for 10 minutes at 15,000×g, 4° C. and the resulting supernatants were collected. The levels of sCD154 were measured by ELISA.

washed platelets [2] = test: Cleavage of CD40L into sCD40L in platelet lysates (immunoblotting); details: TRAP 5 μM; activated or aggregated platelets; FIG. 4
Protocol: as §1, with “Collected” for “Washed platelets were prepared from blood drawn into ⅙^th volume of ACD containing (85 mM sodium citrate, 111 mM dextrose and 71 mM citric acid) with 0.05 μg/ml PGI2. Collected”
Cleavage of the full length CD40L (32 kD) yields the 18 kD soluble from (sCD40L). 500 μl of Washed platelets were gently mixed with TRAP (5 μM) to initiate the platelet activation. Metalloproteinase inhibitors GM6001 (50 μM, Calbiochem) or DMSO were added to washed platelets, and incubated at 37° C. with or without rocking for 30 minutes. […] Platelets were removed from suspension by centrifugation for 10 minutes at 15,000×g, 4° C. and the resulting platelet pellets were dissolved in the loading buffer. The proteins in the platelet lysates were resolved with SDS-PAGE, transferred onto nitrocellulose membrane, and blotted with anti-CD40L antibody (MK13A4, Alexis).

washed platelets [3] = test: TRAP6-induced aggregation of washed platelets (aggregometer); details: 1 μM TRAP6; 0.1-1.0 μg/ml TIMP-2 or 5-50 μM TAPI-1
Protocol: as §1, with “⅙ th” for “⅙^th”, “resuspending” for “repeat suspending and pelleting”, “(3×10^8/ml)” for “(5×10^8/ml)”
a. For platelet aggregation studies, 500 μL of washed platelets were allowed to stir in a Chrono-Log Aggregometer before the addition of 1 μM TRAP6 to initiate aggregation. Subsequent samples included various metalloproteinase inhibitors added to washed platelets before the addition of TRAP6; 0.1-1.0 μg/ml TIMP-2 (Calbiochem) or 5-50 μM TAPI-1 (Peptides International). Aggregation proceeded for 5 minutes and the amplitude of each aggregometer tracing was calculated by Aggro-Link software.

washed platelets [4] = test: sCD154 release from TRAP6-stimulated washed platelets with rocking (ELISA); details: rocking 30 minutes, 37° C.
Protocol: as §1, with “⅙ th” for “⅙^th”, “resuspending” for “repeat suspending and pelleting”, “(3×10^8/ml)” for “(5×10^8/ml)”
b. CD154 determinations were made as follows: Washed platelets were incubated at 37° C. with various concentrations of TIMP-2 and TAPI-1 (see above) while rocking on a Nutator for 30 minutes. Platelets or platelet aggregates were removed from suspension by centrifugation for 10 minutes at 15,000×g, 4° C. and the resulting supernatants were collected. The levels of sCD154 were measured by ELISA.

CNC(=O)[C@H](Cc1c[nH]c2ccccc12)NC(=O)[C@@H](CC(=O)NO)CC(C)C [GM6001, N-[(2R)-2-(Hydroxamidocarbonylmethyl)-4-methylpentanoyl]-L-tryptophan methylamide]
inhibited: release of sCD40L from TRAP activated, but not aggregated, platelets (washed platelets [1]) | release of sCD154 from TRAP-stimulated platelets (washed platelets [1]) | cleavage of the full length CD40L to the 18 kD soluble form (washed platelets [2])

CC(C)C[C@H](CC(=O)NO)C(=O)N[C@@H](Cc1ccc2ccccc2c1)C(=O)N[C@@H](C)C(=O)NCCN [TAPI-1, HONHCOCH2CH(CH2CH(CH3)2-CO-NaI-Ala-NHCH2CH2NH2]
inhibited: platelet aggregation induced by sub-optimal concentrations of TRAP6 (washed platelets [3]) | release of sCD154 from TRAP6-stimulated platelets (washed platelets [4]) | release of sCD40L from TRAP activated, but not aggregated, platelets (washed platelets [1]) | release of sCD154 from TRAP-stimulated platelets (washed platelets [1])
